Data set [1] can be described thus: Determination of the lethal effect (LD50, oral, mouse). As to conditions: in vivo, per os, 48 hours observation. The method, then:
The toxicity investigations were carried out on female NMRI mice: body weight 22 to 26 g. The animals received food and water (Altromin®) ad libitum. The substances to be tested were administered orally with the oesophageal sound as solutions of various concentration in a volume of from 10 to 20 ml/kg; 5 animals per dose were kept in Makrolon® cages, Type II. The observation duration was 48 hours. The DL50, the dose with which 50% of the animals died, was determined graphically from the dose effect curve.

Data set [2] relates to albino mice. The experiment in a line: Writhing test (acetic acid writhing, analgesia, mouse). Particulars: po, per os; for ED50: dose reducing number of writhings by 50%; for ED40: *ED40 values, read-out: ED40 Writhing (values marked *). The data set is classed as in vivo. The method, then:
(c) Writhing test (acetic acid writhing): intraperitoneal injection of 0.2 ml/20 g mouse of a 0.75% strength acetic acid solution induces (in albino mice) a typical syndrome, called writhing, which proceeds over the body with dorsal flection. These writhings, which occur in the course of the first half hour after administration, are counted in the space of time of from 5 to 20 minutes after administration. The substances tested cause a reduction of the number of writhing syndromes. […] Literature: Koster, Anderson, Fed. Proc., 18 (1959) 42.
(In general: An intraperitoneal irritant provokes the stretching counted in writhing tests.)

In data set [3] the test system is albino mice. Put plainly: Tail-Flick test (analgesia, mouse). As to conditions: po, per os, dose prolonging reaction time by 50%. The data set is classed as in vivo. The method, then: (§1) (b) Tail-Flick test: a thermal pain is caused at the tail root of female albino mice or rats with a focused heat ray, and the time until the tail is drawn away is recorded with a stop watch. Normally, it lies in the range of from 4 to 5 seconds. The substances tested cause delayed reaction to the heat pain, i.e. reduced thermal-pain reaction. The dose which prolongs the reaction time by 50% was determined. Literature: D'Amour, F. E., and Smith, D. L., J. Pharmacol. Exp. Ther., 72 (1941) 74.
(In hot-plate and tail-flick tests a longer latency is read as antinociception.)

In data set [4] the test system is mice. The experiment in a line: Withdrawal jumping of mice after treatment and intraperitoneal application of naloxone. As to conditions: for withdrawal jumping after naloxone (in words): 200 mg/kg twice daily over 5 weekdays, naloxone 30 mg/kg i.p. 1 hour after last dose; for % of the animals reacting with "jumping": naloxone intraperitoneal, 3 and 6 given 200 mg/kg twice daily over 5 weekdays, NaCl control 20. The data set is classed as in vivo, mouse. As for the experimental part:
(§2) According to Way et al. [J. Pharmacol. Exp. Ther., 167 (1969) 1] mice, which are dependent on analgesics with a morphine-like effect, react with withdrawal jumping immediately after intraperitoneal administration of naloxone. According to Saelens and co-workers [Arch. Int. Pharmacodyn. […] 2 cannot be tested accordingly because of its toxicity.
(§3) 3 and 6 were administered to mice [200 mg/kg twice daily over 5 weekdays].

Data set [5] deals with rats. Put plainly: Tail-Flick test (analgesia, rat). The data set is classed as in vivo. As to conditions: po, per os, dose prolonging reaction time by 50%. As for the experimental part:
as §1

Data set [6] concerns albino mice. The experiment in a line: Hot plate test (analgesia, mouse). As to conditions: po, per os; for ED50: dose prolonging reaction time by 50%; for ED40: *ED40 values, read-out: ED40 Hot plate (values marked *). The data set is classed as in vivo. As for the experimental part:
(a) Hot plate test: female albino mice were placed on a 50° C. hot plate and the reaction time until they licked their paws was recorded with a stop watch. Normal values lie in the range of from 7 to 8 seconds. The substances tested cause delayed reaction to the heat stimulus, i.e. reduced thermal-pain sensitivity. The dose which prolongs the reaction time by 50% was determined. Literature: Eddy, N. B., and Leimbach, D., J. Pharmacol. Exp. Ther., 107 (1953) 385.

The conditions of data set [7]: Saelens et al., Arch. Int. Pharmacodyn. Ther., 190 (1971) 213; cited from earlier work.
The subject of data set [8] is albino mice. The experiment in a line: Tail-Flick test (analgesia, mouse). The data set is classed as in vivo. As to conditions: po, per os, *ED40 values, read-out: ED40 Tail-Flick (values marked *).
A short description of data set [9]: Withdrawal jumping of mice after treatment and intraperitoneal application of naloxone. The data set is classed as in vivo, mouse. As to conditions: mouse, in vivo, not testable for jumping, read-out: lethality in withdrawal jumping test. The method, then: as §2, §3

One may read the LD50 as the dose expected to kill half of the subjects tested. A word on the ED50: it is the midpoint of the dose-response relation. The low end stands for greater potency, the high end for weaker potency. Take `CN1CCCC1CC(O)c1cccc(O)c1` (stereo not drawn) [Compound 10, 1-(3-hydroxyphenyl)-2-(1-methyl-2-pyrrolidinyl)-ethanol]: the 50% lethal dose (LD50) at 48 h in data set [1] turned out to be 420 mg/kg. In data set [2], this compound displayed an ED50 of 125 mg/kg.

For the compound `COc1cccc([C@@H](C[C@@H]2CCCN2C)OC(C)=O)c1` (relative stereo) [Compound 13, (R*,S*)-acetic acid-[1-(3-methoxyphenyl)-2-(1-methyl-2-pyrrolidinyl)-ethyl]-ester], the LD50 at 48 h in data set [1] came to 440 mg/kg. The ED40 in [2] worked out at 75 mg/kg.

Turning to `CN1CCCC1CC(O)c1cccc(Cl)c1` (stereo not drawn) [Compound 11, 1-(3-chlorophenyl)-2-(1-methyl-2-pyrrolidinyl)-ethanol], the ED50 in data set [3] stood at 65 mg/kg; in data set [2], 125 mg/kg. The LD50 at 48 h in data set [1] was 330 mg/kg.

With `COc1cccc(C(O)CC2CCCN2C)c1` (stereo not drawn) [Compound 3, 1-(3-methoxyphenyl)-2-(1-methylpyrrolidin-2-yl)-ethanol], the ED50 came to 25 mg/kg in data set [3], 7 mg/kg in [5], 30 mg/kg in data set [6] and 15 mg/kg in [2]. In addition, the “withdrawal jumping after naloxone (in words)” value in data set [4] is on record as “did not lead to withdrawal jumping”. The “% of the animals reacting with "jumping"” value in data set [4] came to 20%. This compound also returned an LD50 at 48 h in data set [1] of 600 mg/kg.

In the case of `CCC(=O)O[C@](Cc1ccccc1)(c1ccccc1)[C@H](C)CN(C)C` [Compound 1, dextropropoxyphene, reference compound], the ED50 in data set [3] is 25 mg/kg; in data set [5], 25 mg/kg; in [6], 15 mg/kg; in data set [2], 30 mg/kg. Also, the “% of the animals reacting with "jumping"” value in data set [4] is given as 100%. The compound also returned an LD50 at 48 h in data set [1] of 140 mg/kg. For the same compound, the dependence development result in data set [7] is recorded as “a dependence development is evidenced”.

As to `COc1cccc([C@H](O)C[C@H]2CCCN2C)c1` (relative stereo) [Compound 5, (R*,R*)-1-(3-methoxyphenyl)-2-(1-methyl-2-pyrrolidinyl)ethanol], the ED50 in data set [3] is 70 mg/kg; in data set [6], 50 mg/kg; in data set [2] it was 40 mg/kg. In [1], this compound showed a median lethal dose (LD50) at 48 h of 490 mg/kg.

For the compound `COc1cccc([C@H](O)C[C@@H]2CCCN2C)c1` (relative stereo) [Compound 4, (R*,S*)-1-(3-methoxyphenyl)-2-(1-methyl-2-pyrrolidinyl)-ethanol], the 50% effective dose (ED50) stood at 60 mg/kg in data set [3], 100 mg/kg in data set [6] and 50 mg/kg in data set [2]. In data set [1], the LD50 at 48 h turned out to be 420 mg/kg.

As for `Cc1cccc(C(O)CC2CCCN2C)c1` (stereo not drawn) [Compound 6, 2-(1-methylpyrrolidin-2-yl)-1-(3-tolyl)ethanol], the ED50 in [3] was determined as 35 mg/kg; in [5], 10 mg/kg; in [6], 100 mg/kg; in data set [2], 75 mg/kg. Further, the “withdrawal jumping after naloxone (in words)” value in [4] is reported as “did not lead to withdrawal jumping”. For the same compound, the “% of the animals reacting with "jumping"” value in [4] turned out to be 10%. This compound also displayed an LD50 at 48 h in [1] of 420 mg/kg.

Consider `Cc1cccc([C@H](O)C[C@@H]2CCCN2C)c1` (relative stereo) [Compound 7, (R*,S*)-1-(3-methylphenyl)-2-(1-methyl-2-pyrrolidinyl)-ethanol], for which the ED50 in data set [3] is 50 mg/kg; in data set [6], 100 mg/kg. This compound also displayed a median lethal dose (LD50) at 48 h in data set [1] of 300 mg/kg. Further, in data set [2], the ED40 was 75 mg/kg.

For `CCCCCCN1CCCC1CC(O)c1cccc(OC)c1` (stereo not drawn) [Compound 12, 2-(1-n-hexyl-2-pyrrolidinyl)-1-(3-methoxyphenyl)-ethanol], in data set [3], the median effective dose (ED50) was found to be 70 mg/kg. Moreover, the 50% lethal dose (LD50) at 48 h in data set [1] was found to be 180 mg/kg. For the same compound, in [2], the ED40 turned out to be 75 mg/kg.

As for `Cc1cccc([C@H](O)C[C@H]2CCCN2C)c1` (relative stereo) [Compound 8, (R*,R*)-1-(3-methylphenyl)-2-(1-methyl-2-pyrrolidinyl)-ethanol], the 50% effect level in data set [3] (ED50) was put at a dose of 10 mg/kg. Moreover, the LD50 at 48 h in data set [1] is 320 mg/kg. The ED40 in [6] amounted to 100 mg/kg; in data set [2] it was 75 mg/kg.

On to `COc1cccc(C(O)CC2CCCN2C(C)C)c1` (stereo not drawn) [Compound 9, 2-(1-isopropyl-2-pyrrolidinyl)-1-(3-methoxyphenyl)ethanol], for which the ED40 is 75 mg/kg in data set [8] and 100 mg/kg in data set [6]. Besides, in data set [1], the LD50 at 48 h was determined as 340 mg/kg. In data set [2], this compound displayed a median effective dose (ED50) of 75 mg/kg.

In the case of `CN1CCOC(c2ccccc2)c2ccccc2C1` (stereo not drawn) [Compound 2, nefopam, reference compound], the ED50 in data set [3] worked out at 20 mg/kg; in data set [5] it was 10 mg/kg; in [6], 30 mg/kg; in data set [2] it was 25 mg/kg. Also, in [9], the mortality is 80%. In data set [1], the LD50 at 48 h was determined as 180 mg/kg.

Source of the values: patent US4198424A, “Substituted 1-phenyl-2-pyrrolidin-2-yl-ethanols, their synthesis, their use and their compositions” (Byk Gulden Lomberg Chemische Fabrik GmbH, priority 1977, dated 1980).
